For orientation: IC50 means the midpoint of a concentration-inhibition curve.

IC50 data for 8 molecules are collected here from patent US9745307B2, “Compounds that are ERK inhibitors” (Merck Sharp & Dohme Corp., priority 2013, dated 2017).

Sequence of phosphorylated active hERK2 enzyme (P28482 whole entry): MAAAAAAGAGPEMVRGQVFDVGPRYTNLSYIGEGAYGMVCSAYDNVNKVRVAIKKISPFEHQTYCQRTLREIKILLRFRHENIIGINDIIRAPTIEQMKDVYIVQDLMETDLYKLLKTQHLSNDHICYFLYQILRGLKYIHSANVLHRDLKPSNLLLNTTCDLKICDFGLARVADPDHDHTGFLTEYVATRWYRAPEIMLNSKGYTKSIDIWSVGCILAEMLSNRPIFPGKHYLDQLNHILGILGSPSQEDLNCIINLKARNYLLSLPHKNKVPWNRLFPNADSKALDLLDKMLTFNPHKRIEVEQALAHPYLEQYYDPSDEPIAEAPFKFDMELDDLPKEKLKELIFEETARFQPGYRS

The target in the test is phosphorylated active hERK2 enzyme (Homo sapiens (Human), UniProt P28482). Description: Active Human ERK2 (hERK2) Activity Assay (IMAP-FP). The class given is biochemical. Particulars: 0.5 nM hERK2, 30 μM ATP, 60 minutes reaction; read-out: ERK 2 Human average IC50. Here is the method:
Active Human ERK2 (hERK2) Activity Assay:
Activated ERK2 activity was determined in an IMAP-FP assay (Molecular Devices).
In the case of `Cc1cc(-c2n[nH]c3cc4c(cc23)CCC(=O)N4O)ccn1` [Example 8, 8-hydroxy-3-(2-methylpyridin-4-yl)-5,6-dihydro-1H-pyrazolo[4,3-g]quinolin-7(8H)-one], the IC50 came out at 0.0036 µM.

`C[C@H](c1ccccc1)N1Cc2cc3c(-c4ccc5nnn(C)c5c4)n[nH]c3cc2NC1=O` [Example 26, (R)-3-(1-methyl-1H-benzo[d][1,2,3]triazol-6-yl)-6-(1-phenylethyl)-5,6-dihydro-1H-pyrazolo[4,3-g]quinazolin-7(8H)-one]: the IC50 came to 0.0003 µM.

Take `CCNc1n[nH]c2cc3c(cc12)CN([C@H](C)c1ccccc1)C(=O)N3` [Example 29, (R)-3-(ethylamino)-6-(1-phenylethyl)-5,6-dihydro-1H-pyrazolo[4,3-g]quinazolin-7(8H)-one]: the IC50 stood at 0.022 µM.

On to `C[C@H](c1ccccc1)N1Cc2cc3c(N[C@@H](C)C(F)(F)F)n[nH]c3cc2NC1=O` [Example 30, 6-((R)-1-phenylethyl)-3-(((S)-1,1,1-trifluoropropan-2-yl)amino)-5,6-dihydro-1H-pyrazolo[4,3-g]quinazolin-7(8H)-one], for which the concentration for half-maximal inhibition (IC50) turned out to be 0.025 µM.

For `C[C@H](c1ccccc1)N1Cc2cc3cn[nH]c3cc2NC1=O` [Example 31, (R)-6-(1-phenylethyl)-5,6-dihydro-1H-pyrazolo[4,3-g]quinazolin-7(8H)-one], the IC50 was determined as 0.055 µM.

With `C[C@H](c1ccccc1)N1Cc2cc3c(N)n[nH]c3cc2NC1=O` [Example 32, (R)-3-amino-6-(1-phenylethyl)-5,6-dihydro-1H-pyrazolo[4,3-g]quinazolin-7(8H)-one], the IC50 worked out at 0.021 µM.

As for `COC(=O)Nc1n[nH]c2cc3c(cc12)CN([C@H](C)c1ccccc1)C(=O)N3` [Example 33, (R)-methyl(7-oxo-6-(1-phenylethyl)-5,6,7,8-tetrahydro-1H-pyrazolo[4,3-g]quinazolin-3-yl)carbamate], the IC50 came out at 0.0052 µM.

Consider `C[C@H](c1ccccc1)n1c(=O)[nH]c2cc3[nH]nc(N)c3cc2c1=O` [Example 44, (R)-3-amino-6-(1-phenylethyl)-1H-pyrazolo[4,3-g]quinazoline-5,7(6H,8H)-dione], for which the half-maximal inhibitory concentration (IC50) was determined as 0.045 µM.
